{
  "source": "patent US9949942B2",
  "about": "“Sustained release delivery of active agents to treat glaucoma and ocular hypertension” (Mati Therapeutics Inc., priority 0208, dated 2018)",
  "origin": "cited, not measured here",
  "key": {"[1]": {"conditions": "man; after topical administration"}, "[2]": {"experiment": "not given", "remark": "listed apart in the source"}},
  "data": [
    {"smiles": "CC(C)OC(=O)CCC/C=C\\C[C@@H]1[C@@H](CC[C@@H](O)CCc2ccccc2)[C@H](O)C[C@@H]1O", "note": "[Latanoprost, isopropyl-(Z)-7[(1R,2R,3R,5S)3,5-dihydroxy-2-[(3R)-3-hydroxy-5-phenylpentyl]cyclopentyl]-5-heptenoate]", "values": [
      {"measurement": "frequency of retinal artery embolus, retinal detachment, vitreous hemorrhage from diabetic retinopathy", "setting": "clinical trials", "result": "rarely reported"},
      {"measurement": "rate of upper respiratory tract infection/cold/flu (most common systemic adverse events)", "setting": "clinical trials", "result": "approximately 4%"},
      {"measurement": "subjects requiring discontinuation of therapy because of intolerance to conjunctival hyperemia", "setting": "clinical trials", "result": "Less than 1%"},
      {"measurement": "ocular adverse events: subjects affected", "setting": "conjunctivitis, diplopia, discharge from the eye", "result": "Less than 1%"},
      {"measurement": "time to peak concentration in the aqueous humor", "setting": "[1]", "result": "about two"},
      {"measurement": "solubility in acetone, ethanol, ethyl acetate, isopropanol, methanol and octanol", "setting": "[2]; acetone, ethanol, ethyl acetate, isopropanol, methanol, octanol", "result": "freely soluble"},
      {"measurement": "solubility in acetonitrile", "setting": "[2]; acetonitrile", "result": "very soluble"},
      {"measurement": "solubility in water", "setting": "[2]; water", "result": "practically insoluble"}
    ]}
  ]
}
